The results in this text go back to US9290488B2, “Azetidine-substituted quinoxalines as opioid receptor like-1 modulators” (priority 2011, dated 2016).

Read-outs that look alike come from different tables or passages of the source.

Data set [1] can be described thus: In vitro assay of free unbound compound (equilibrium dialysis of rat serum). The conditions noted are these: for Free Unbound Drug Fraction (%): rat serum, 2 μg/mL, 24 h equilibrium dialysis at 37° C. against PBS. (In equilibrium dialysis only unbound substance equilibrates across the membrane.)
A short description of data set [2]: In vitro metabolic stability, rat liver microsomes. The settings on record: for Metabolic Stability (%) Rat: % of compound remaining after 30 min incubation at 37° C., 2 μM, 0.5 mg/mL rat liver microsomes. A general note: Liver microsomes are vesicles of endoplasmic reticulum, rich in cytochrome P450 enzymes.
The nature of data set [3]: In vitro metabolic stability, human liver microsomes. The settings on record: % of compound remaining after 30 min incubation at 37° C., 2 μM, 0.5 mg/mL human liver microsomes.
For data set [4] the following is noted: male, Crj:CD (SD), pH 7.4.

As for `CC[C@@H]1C[C@@H]2C[C@H](C1)C[C@@H](N1[C@@H]3CCC[C@H]1C[C@@H](n1c(=O)c(N4CC[C@H]4C(=O)O)nc4ccccc41)C3)C2` [B20a(ii)], the “Free Unbound Drug Fraction (%)” value in data set [1] is 3.3%. Moreover, the “free unbound drug fraction, times greater than counterpart d=2 compound” value in data set [1] (ratio B20a(ii) / CC02, rat serum) is reported as “over 2.7 times”. In addition, in data set [2], the “Metabolic Stability (%) Rat” value came to 84%. For the same molecule, the “Metabolic Stability (%) Human” value in data set [3] was determined as 70%.
Regarding `O=C(O)[C@@H]1CCN1c1nc2ccccc2n([C@H]2C[C@H]3COC[C@@H](C2)N3[C@H]2C[C@@H]3CCC[C@@H](C3)C2)c1=O` [C2a(ii)], in data set [2], the “Metabolic Stability (%) Rat” value is listed as 86%. Further, the “Metabolic Stability (%) Human” value in data set [3] is on record as 67%. The “metabolic stability upon exposure to rat liver microsomes, times greater than counterpart d=2 compound” value in data set [4] came out at 2.6 times.
In the case of `CC12C[C@H]3C[C@@H](N4[C@@H]5COC[C@H]4C[C@@H](n4c(=O)c(N6CC[C@H]6C(=O)O)nc6ccccc64)C5)C[C@@H]1C[C@@H]2C3` [C20a(ii)], the “Metabolic Stability (%) Rat” value in data set [2] was 62%. For the same molecule, the “metabolic stability upon exposure to rat liver microsomes, times greater than counterpart d=2 compound” value in data set [2] (ratio d=1 compound / d=2 counterpart, rat liver microsomes) is reported as “over 4.4 times”. In data set [3], the “Metabolic Stability (%) Human” value worked out at 6.5%.
With `O=C(O)[C@@H]1CCCN1c1nc2ccccc2n([C@H]2C[C@H]3CCC[C@@H](C2)N3[C@H]2C[C@@H]3CCC[C@@H](C3)C2)c1=O` [CC01, reference compound], the “Metabolic Stability (%) Rat” value in data set [2] is listed as 100%.
In the case of `CC12C[C@H]3C[C@@H](N4[C@@H]5CCC[C@H]4C[C@@H](n4c(=O)c(N6CCC[C@H]6C(=O)O)nc6ccccc64)C5)C[C@@H]1C[C@@H]2C3` [CC02, reference compound], the “Free Unbound Drug Fraction (%)” value in data set [1] is listed as 1.2%. For the same molecule, in data set [2], the “Metabolic Stability (%) Rat” value is 97%. For the same molecule, in data set [3], the “Metabolic Stability (%) Human” value is 58%.
For the molecule `O=C(O)[C@@H]1CCCN1c1nc2ccccc2n([C@H]2C[C@H]3COC[C@@H](C2)N3[C@H]2C[C@@H]3CCC[C@@H](CC3)C2)c1=O` [CC03, reference compound], in data set [2], the “Metabolic Stability (%) Rat” value was 33%. Also, in data set [3], the “Metabolic Stability (%) Human” value was determined as 60%.
The like results for `CC12C[C@H]3C[C@@H](N4[C@@H]5COC[C@H]4C[C@@H](n4c(=O)c(N6CCC[C@H]6C(=O)O)nc6ccccc64)C5)C[C@@H]1C[C@@H]2C3` [CC04, reference compound] were, in that order, 14% and 21%.
